Data reported in paper PMC11338949, “E41K mutation activates Bruton’s tyrosine kinase by stabilizing an inositol hexakisphosphate-dependent invisible dimer” (The Journal of Biological Chemistry, 2024).

Target: T1, full-length BTK^E41K (Mus musculus, UniProt P35991, E41K)
T1 construct: The full-length BTK was cloned into the pET28-SUMO vector; His-SUMO (N, cleaved yes); made in house; host or cells: E. coli BL21-DE3, co-transformed with YopH and Trigger factor
Test: Autophosphorylation assay by immunoblot (Y551) of purified full-length BTK
Format: biochemical
Settings: 2 μM BTK, 100 μM ligand, compared to unliganded state
Protocol: The activation of full-length BTK in response to the ligand was determined from the autophosphorylation Y551 or total phosphotyrosine level. Before each reaction, 2 μM BTK was incubated with 100 μM ligand for 10 min. The phosphorylation reaction was performed at 25 °C in a buffer containing 25 mM Tris-Cl (pH 7.5), 2 mM ATP, 10 mM MgCl2, and 1 mM Na3VO4. The reaction was quenched with SDS–PAGE loading buffer. The autophosphorylation levels of full-length BTK were detected by immunoblot ([22]). The amount of BTK loaded was determined using an anti-BTK antibody. Densitometric analysis of immunoblots was performed using Fiji software ([52]).

T1 sequence (P35991 whole entry E41K): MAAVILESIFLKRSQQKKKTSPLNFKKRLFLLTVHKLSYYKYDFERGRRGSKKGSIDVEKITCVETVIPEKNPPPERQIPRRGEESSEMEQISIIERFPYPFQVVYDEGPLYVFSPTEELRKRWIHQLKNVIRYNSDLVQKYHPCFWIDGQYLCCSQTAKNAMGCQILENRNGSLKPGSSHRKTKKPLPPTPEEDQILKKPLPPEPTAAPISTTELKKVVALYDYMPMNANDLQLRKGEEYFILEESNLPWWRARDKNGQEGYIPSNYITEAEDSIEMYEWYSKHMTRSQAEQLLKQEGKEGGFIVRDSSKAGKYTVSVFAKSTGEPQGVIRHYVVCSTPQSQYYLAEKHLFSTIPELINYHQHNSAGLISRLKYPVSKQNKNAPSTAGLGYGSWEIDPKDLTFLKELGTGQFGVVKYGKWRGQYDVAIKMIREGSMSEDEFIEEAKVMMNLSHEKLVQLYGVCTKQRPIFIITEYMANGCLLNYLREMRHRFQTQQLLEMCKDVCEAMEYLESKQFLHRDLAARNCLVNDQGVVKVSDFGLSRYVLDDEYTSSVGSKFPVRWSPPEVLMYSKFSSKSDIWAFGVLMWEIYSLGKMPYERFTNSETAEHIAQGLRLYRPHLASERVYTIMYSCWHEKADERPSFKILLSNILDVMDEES

## O=P(O)(O)O[C@@H]1[C@H](O)[C@H](O)[C@@H](OP(=O)(O)O)[C@H](OP(=O)(O)O)[C@H]1O [IP3]
  Y551 phosphorylation of BTK^E41K: does not induce

## O=P(O)(O)OC1C(OP(=O)(O)O)C(OP(=O)(O)O)C(OP(=O)(O)O)C(OP(=O)(O)O)C1OP(=O)(O)O (centres unmarked) [IP6, inositol hexakisphosphate]
  Y551 phosphorylation of BTK^E41K: significantly increases
